Laboratory results taken from patent US20240307375A1, “PHARMACEUTICAL COMPOSITION FOR PREVENTING AND/OR TREATING KIDNEY INJURY, AND AUTOPHAGY ACTIVATOR” (OSAKA UNIVERSITY, priority 2021, published 2024).

Experiments:
[1] = test system: Kidney Injury Induced by Cisplatin Administration; experiment: Cisplatin-induced kidney injury in mice, PAS histology of renal cortex; type: in vivo
Experimental: Wild-type male mice were used as test animals. The mice had free access to water and standard mouse chow. […] The same amount of physiological saline was intraperitoneally administered to the control group. A sample liquid was prepared by suspending Compound 011 (test compound) in PBS. […] The same amount of PBS was orally administered to the control group. […] Additionally, the mice that were not administered with cisplatin were treated in a similar manner, and the blood and kidneys were collected. The mice were thus divided into four groups. The mice were perfused transcardially with PBS (pH of 7.4). The collected kidneys were sliced, post-fixed in 4% PFA (paraformaldehyde), and embedded in paraffin or frozen in OCT compound to obtain section samples of renal cortex. The section samples of the four groups were stained with PAS (Periodic acid-Schiff) and observed under an optical microscope (400×) (FIG. 1). The renal tubular injury was quantitatively evaluated using PAS-stained section samples. […] The renal tubular injury was defined to be cellular necrosis, tubular dilatation, and cast formation.

[2] = test system: Kidney Injury Induced by Cisplatin Administration; experiment: Plasma creatinine and urea nitrogen in cisplatin-treated mice; type: in vivo
Experimental: Wild-type male mice were used as test animals. […] The same amount of physiological saline was intraperitoneally administered to the control group. […] The same amount of PBS was orally administered to the control group. […] Plasma was obtained from the blood collected from the mice to measure the creatinine concentration and the urea nitrogen concentration (n=2 to 4 for each group). The creatinine concentration was measured by using a BioAssay Systems' Creatinine Assay Kit (DICT-500), and the urea nitrogen concentration was measured by using a Wako BUN-test. […] Additionally, in FIG. 3, “Cre” represents the creatinine concentration and “BUN” represents the serum urea nitrogen concentration.

[3] = test system: p53-positive cells / p62-positive dots (DNA damage, autophagy substrate); experiment: p53 and p62 immunostaining of renal cortex after cisplatin administration; type: in vivo, mice; settings: cisplatin 15 mg/kg i.p. plus test compound 10 mg/kg orally
Experimental: The kidneys of mice were collected as in Test Example 1. The kidneys were subjected to autoclaving at 120° C. for 10 minutes in a […] citrate buffer (pH of 6.0) for […] and to blocking with 1.5% bovine serum albumin in PBS for 60 minutes. Subsequently, paraffin embedding was performed to prepare section samples of renal cortex of the four groups.
The sections were incubated overnight at 4° C. with p53 or p62 primary antibodies.
For each group (n=2 to 4), the number of p53-positive cells or p62-positive dots were counted in fields at a magnification of 200× (p53) or 400× (p62) to calculate the average values.

[4] = test system: autophagy flux (GFP-LC3 dots per proximal tubule); experiment: Autophagy flux in kidneys of GFP-LC3 transgenic mice after cisplatin, with or without chloroquine; type: in vivo
Experimental: The test animals were 8-week-old male autophagy-monitoring mice (GFP-LC3 transgenic mice). The mice had free access to water and standard mouse chow.
The test compound (compound 011) was suspended in PBS to prepare a sample liquid.
Six hours before anesthetization of the mice, a chloroquine solution was administered intraperitoneally as a lysosomal inhibitor at 50 μg/g body weight. Separately, a group in which the chloroquine solution was not administered was also prepared. The chloroquine solution was prepared by dissolving chloroquine (Sigma-Aldrich) in distilled water at a concentration of 5 mg/mL.
The autophagy flux was evaluated by quantifying GFP-LC3 dots (GFP-positive dots).
The kidney sections were immunostained with LRP2/Megalin (red), which is a marker for proximal tubular cells, and contrast-stained with DAPI (blue).
The number of GFP-LC3 dots (green) per proximal tubule in each group (n=5) was quantified in 10 high-magnification fields (600×), and the average values were used for evaluation.

A549 cells = experiment: LC3-II Western blotting in A549 cells with or without Bafilomycin A1; type: cell-based, human; settings: 10 μM test compound, 6 hours, Bafilomycin A1 250 nM
Experimental: A549 cells (1.0×10^5 cells/well), i.e., human lung tumor cells, were seeded in a 6-well plate containing DMEM medium and cultured for 1 day, and the cells were washed with PBS.
A DMEM medium containing Bafilomycin Al (final concentration: 250 nM; also referred to as “Baf”) (Baf(+)) and a DMEM medium not containing Baf (Baf(−)) were prepared. Additionally, a Baf-containing DMEM medium with DMSO or Compound 011 (the test compound) and a Baf-free DMEM medium with DMSO or Compound 011 (the test compound) were also prepared, thus preparing a total of six different media. The final concentration of DMSO was 0.1% and the final concentration of the test compound was 10 μM. Separately, an Earle's balanced salt solution (EBSS; starvation) containing Baf and an EBSS not containing Baf were also prepared. 3 mL of one of the six types of media and two types of EBSSs was added to each well containing washed cells, followed by culturing for 6 hours. After washing the cells three times with PBS, RIPA buffer was added at 4° C., and the cells were allowed to stand on ice for 30 minute. The cells were then quickly and carefully collected from the wells. After the cells were collected, centrifugation (15000 rpm, 4° C., 30 min) was performed, and the supernatant was collected to obtain a protein solution. […]

[5] = cisplatin 15 mg/kg i.p. plus test compound 10 mg/kg orally, effect on cisplatin-induced increase
[6] = test compound 10 mg/kg orally, no cisplatin

For `O=C(O)c1cnc(N2CCN(c3noc4cccc(C(F)(F)F)c34)CC2)c(Cl)c1` [Compound 011, 5-Chloro-6-(4-(4-(trifluoromethyl)benzo[d]isoxazol-3-yl)piperazin-1-yl)nicotinic acid], the “renal tubular injury (PAS-stained renal cortex sections)” value ([1]; cisplatin 15 mg/kg i.p. plus test compound 10 mg/kg orally for 3 consecutive days, 3 days after cisplatin) was “clearly attenuated renal tubular injury caused by cisplatin”, the “score of renal tubular injury (PAS injury score)” value ([1]; cisplatin 15 mg/kg i.p. plus test compound 10 mg/kg orally, 10-scale grade) was “clearly attenuated” and the “change in PAS-stained renal cortex versus vehicle administration group” value ([1]; test compound 10 mg/kg orally for 3 days, no cisplatin) was “no apparent change”. For the same compound, the plasma creatinine concentration [2, 5] was “clearly suppressed”, the “serum urea nitrogen (BUN) concentration” value [2, 5] was “clearly suppressed” and the plasma creatinine concentration [2, 6] was “little or no change”. For the same compound, the “serum urea nitrogen (BUN) concentration” value [2, 6] was “little or no change”, the “number of p53-positive cells” value [3] was “clearly reduced” and the “number of p62-positive dots” value [3] was “clearly reduced”. For the same compound, the “number of GFP-LC3 dots per proximal tubule” value (“number … per proximal tubule” below) ([4]; cisplatin 15 mg/kg i.p. plus test compound 10 mg/kg orally, 2 days after cisplatin, without chloroquine) was “a decrease in GFP-LC3 dots”, the “number … per proximal tubule” value ([4]; cisplatin plus test compound 10 mg/kg orally plus chloroquine 50 μg/g i.p. 6 hours before anesthetization) was “significantly increased” and the “LC3-II protein level with Baf treatment relative to without Baf treatment” value (A549 cells) was “significant increase in LC3-II with the Baf treatment”. The “degree of the LC3-II increase with Baf treatment compared with starvation (EBSS)” value (A549 cells) was “comparable to that of starvation”.

With `N.N.[Cl][Pt][Cl]` [cisplatin, reference compound] the “number … per proximal tubule” value ([4]; cisplatin 15 mg/kg i.p. alone, without chloroquine) was “increased GFP-LC3 dots” and the “number … per proximal tubule” value ([4]; cisplatin 15 mg/kg i.p. plus chloroquine on the second day, no test compound) was “no increase in GFP-LC3 dots”.
